Laboratory results published in article PMC8741604 (Translational Oncology, 2022).
Where a SMILES comes first, the peptide text is derived from it.

B1: murine PD-1: murine PD-1, literature affinity for human PD-L1 (protein, UniProt Q02242 25-288, looked up)
Programmed cell death protein …: LEVPNGPWRSLTFYPAWLTVSEGANATFTCSLSNWSEDLMLNWNRLSPSNQTEKQAAFCNGLSQPVQDARFQIIQLPNRHDFHMNILDTRRNDSGIYLCGAISLHPKAKIEESPGAELVVTERILETSTRYPSPSPKPEGRFQGMVIGIMSALVGIPVLLLLAWALAVFCSTSMSEARGAGSKDDTLKEEPSAAPVPSVAYEELDFQGREKTPELPTACVHTEYATIVFTEGLGASAMGRRGSADGLQGPRPPRHEDGHCSWPL

How the values were obtained:
human PD-L1 [1] = biological target: T1, human PD-L1 (Homo sapiens, UniProt Q9NZQ7); assay: Bio-layer interferometry binding to PD-L1; settings: for Affinity for PD-L1 in words: bio-layer interferometry
T1 sequence (Q9NZQ7 19-290): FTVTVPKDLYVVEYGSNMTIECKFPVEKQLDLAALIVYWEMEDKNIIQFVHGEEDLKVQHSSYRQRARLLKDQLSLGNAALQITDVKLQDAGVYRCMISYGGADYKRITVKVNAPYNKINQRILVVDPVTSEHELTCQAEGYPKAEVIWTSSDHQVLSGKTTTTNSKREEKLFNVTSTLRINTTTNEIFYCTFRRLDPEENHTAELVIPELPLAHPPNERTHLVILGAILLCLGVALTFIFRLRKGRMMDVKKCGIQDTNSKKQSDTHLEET

[2] = tested on: CT26 murine colon carcinoma cells; assay: MTT cell viability without T cells; format: cell-based
[3] = tested on: CT26 murine colon carcinoma tumor in BALB/c mice; assay: Subcutaneous CT26 syngeneic tumor model, without pre-immunization; format: in vivo, mouse; settings: PD-L1ip3 peptide alone, no pre-immunization, vs untreated CT26
[4] = tested on: CT26 murine colon carcinoma tumor in BALB/c mice; assay: Subcutaneous CT26 syngeneic tumor model, pre-treated with CT26 cell lysate; format: in vivo, mouse; settings: PD-L1ip3 peptide only
human PD-L1 [5] = biological target: T1, human PD-L1; settings: cited from earlier work

Molecule	Affinity for PD-L1 in words (human PD-L1 [1])	CT26 cell viability at 72 h, 10 µg/ml ([2]; MTT, 10 µg/ml, 72 h, not significantly different from PBS)	Affinity for PD-L1 relative to natural partner PD-1 (human PD-L1 [1]; KD by BLI compared with literature PD-1 KD)	Cytotoxicity of the peptide (summary statement) ([2]; peptide alone, CT26 cells)	Tumor growth in words, peptide alone [3]	Tumor growth in words, peptide alone, pre-immunized [4]	Affinity of murine PD-1 for human PD-L1 versus human PD-1 (human PD-L1 [5])
VLIKIPWLRLPGCGTQ [PD-L1ip3SC]	very weak binding	slight decrease of cell viability	–	–	–	–	–
CC[C@H](C)[C@H](NC(=O)[C@H](CC(C)C)NC(=O)[C@@H]1CCCN1C(=O)[C@H](CCCCN)NC(=O)[C@H](CC(C)C)NC(=O)[C@H](CCCNC(=N)N)NC(=O)[C@@H](NC(=O)CN)[C@@H](C)O)C(=O)N[C@H](C(=O)N[C@@H](CS)C(=O)N[C@H](C(=O)N[C@@H](CCC(N)=O)C(=O)N[C@@H](Cc1c[nH]c2ccccc12)C(=O)N1CCC[C@H]1C(=O)NCC(=O)N[C@@H](CC(C)C)C(=O)O)C(C)C)[C@@H](C)CC [PD-L1ip3] (H-GTRLKPLIICVQWPGL-OH)	affinity in the micromolar range	–	only a few times weaker	negligible cytotoxicity	neither transduction of a scrambled sequence peptide gene by the adenovirus vector (Ad-PD-L1ip3SC) nor PD-L1ip3 in peptide form alone showed a statistically significant change in tumor growth	minimal effect on tumor growth	–
B1	–	–	–	–	–	–	shows similarity to that of human PD-1 for human PD-L1
